Measured values reported in patent US20220073592A1, “SYNTHETIC AND RECOMBINANT COLLAGEN PEPTIDES HAVING BIOLOGICAL ACTIVITY” (GELITA AG, priority 2018, published 2022).
“And” between values parts separate entries of the source, which are not always exact repeats. Equal entries are not always repeated. Where no end group is shown, it is not given here. [ ]: non-standard residue; d: D form. Hyp = O=C(O)[C@@H]1C[C@@H](O)CN1

What was measured:
Format in all cases: cell-based
[1] = tested on: human dermal fibroblasts; test: Sircol collagen assay, collagen synthesis by dermal fibroblasts; conditions: 0.5 mg/ml peptide, three weeks stimulation
Method: (§1) The human cells used were obtained from tebu-bio GmbH, Offenbach, Germany. The chondrocytes (Cat. No. 402-05a) or dermal fibroblasts (Cat. No. 106-05a) were first sown in 12-well culture plates and cultured at 37° C., 5% CO2 in Ham's F12 medium, to which 10% fetal calf serum, 20 U/ml penicillin-streptomycin and 50 μg/ml ascorbic acid were added. On every other day, the culture medium was replaced by new culture medium until the cells had reached 80% confluence. […] To investigate the collagen metabolism, the amount of newly synthesized collagen was determined after stimulating the cells with 0.5 mg/ml BCP for three weeks. The synthesized collagen was isolated using the Sircol assay (Article No. 054S5000, 2019, tebu-bio, Offenbach, Germany, or Biocolor Ltd., UK) according to the manufacturer's instructions. In brief, the culture medium was initially discarded and the adherent cell layers were digested with 0.1 mg pepsin solution in 0.5 M acetic acid at 4° C. overnight. The cell suspensions were neutralized by adding 100 μl of an acid-neutralizing reagent. The synthesized collagen was then separated off by adding 200 μl of an isolation and concentration solution with vigorous shaking at 4° C. overnight. After centrifugation (12,000 rpm, 10 min) and discarding the supernatant, the isolated collagen was resuspended in 1 ml of Sircol dye solution. After 30 minutes of shaking and another centrifugation, the collagen pellet was covered with 750 μl of cold acidic solid washing reagent. After another centrifugation, the supernatant was again discarded and the enriched collagen was taken up in 250 μl of alkaline solution. In each case 200 μl of the sample solutions were used for photometric quantification of the synthesized collagen. The absorbance was measured at a wavelength of 492 nm. The amount of collagen synthesized in each case was determined on the basis of standardized collagen solutions.

[2] = tested on: human chondrocytes; test: Sircol collagen assay, collagen synthesis by chondrocytes; conditions: 0.5 mg/ml peptide, three weeks stimulation
Method: as §1

[3] = tested on: human dermal fibroblasts; test: Blyscan glycosaminoglycan assay, proteoglycan synthesis by dermal fibroblasts; conditions: 0.5 mg/ml, two weeks stimulation; for increase in the synthesis of proteoglycans by dermal fibroblasts compared to untreated controls: hydroxylated peptides
Method: The human cells used were obtained from tebu-bio GmbH, Offenbach, Germany. The chondrocytes (Cat. No. 402-05a) or dermal fibroblasts (Cat. No. 106-05a) were first sown in 12-well culture plates and cultured at 37° C., 5% CO2 in Ham's F12 medium, to which 10% fetal calf serum, 20 U/ml penicillin-streptomycin and 50 μg/ml ascorbic acid were added. On every other day, the culture medium was replaced by new culture medium until the cells had reached 80% confluence. […] The Blyscan glycosaminoglycan assay (Article No. 054B3000, 2019, tebu-bio, Offenbach, Germany, or Biocolor Ltd., UK) was used to determine proteoglycans. The biosynthesis of proteoglycans was determined after stimulating dermal fibroblasts for two weeks. According to the manufacturer's instructions, after discarding the culture medium, the cell layers were covered with 1 ml of papain extraction solution and incubated for three hours at 65° C. with vigorous shaking. The cell suspensions were then centrifuged (10,000 g, 10 min) and the supernatants were collected. After adding 1 ml of Blyscan dye solution and shaking (30 min), the supernatants were centrifuged again (12,000 rpm, 10 min) and then discarded. The isolated proteoglycan pellets were resuspended in 500 μl of dissociation solution. A photometric determination of the synthesized proteoglycan in 200 μl sample solution was carried out at a wavelength of 656 nm in comparison to untreated control experiments.

[4] = tested on: human chondrocytes; test: Blyscan glycosaminoglycan assay, proteoglycan synthesis by chondrocytes; conditions: 0.5 mg/ml; for increase in collagen synthesis (in the proteoglycan assay, chondrocytes): hydroxylated peptides

Gly-Ala-4Hyp-Gly-Lys-Asp-Gly-Val-Arg-Gly-Leu-Thr-Gly-Pro-Ile-Gly-Pro-4Hyp-Gly-Pro-Ala-Gly-Ala-Arg (GA[Hyp]GKDGVRGLTGPIGP[Hyp]GPAGAR) [SEQ ID No. 9, collagen peptide comprising 24 amino acids]
increase in collagen synthesis by dermal fibroblasts compared to untreated controls [1]: 38% | increase in collagen synthesis by chondrocytes compared to untreated controls [2]: 24% | increase in the synthesis of proteoglycans by dermal fibroblasts compared to untreated controls [3]: 27% | increase in collagen synthesis (in the proteoglycan assay, chondrocytes) [4]: 19%

Gly-Ala-4Hyp-Gly-Pro-Pro-Gly-Pro-4Hyp-Gly-Ala-Arg-Gly-Gln-Ala-Gly-Val-Met-Gly-Phe-4Hyp-Gly-Pro-Lys [SEQ ID No. 10]
increase in collagen synthesis by dermal fibroblasts compared to untreated controls [1]: 35% | increase in collagen synthesis by chondrocytes compared to untreated controls [2]: 20% | increase in the synthesis of proteoglycans by dermal fibroblasts compared to untreated controls [3]: 25% | increase in collagen synthesis (in the proteoglycan assay, chondrocytes) [4]: 29%

Gly-Pro-4Hyp-Gly-Pro-Ala-Gly-Glu-Lys-Gly-Ala-4Hyp-Gly-Ala-Asp-Gly-Pro-Ala-Gly-Ala-4Hyp-Gly-Thr-Pro-Gly-Pro-Gln-Gly-Ile-Ala-Gly-Gln-Arg-Gly-Val (GP[Hyp]GPAGEKGA[Hyp]GADGPAGA[Hyp]GTPGPQGIAGQRGV) [SEQ ID No. 22, collagen peptide comprising 35 amino acids]
increase in collagen synthesis by dermal fibroblasts compared to untreated controls [1]: 43% | increase in collagen synthesis by chondrocytes compared to untreated controls [2]: 46% | increase in the synthesis of proteoglycans by dermal fibroblasts compared to untreated controls [3]: 28% | increase in collagen synthesis (in the proteoglycan assay, chondrocytes) [4]: 26%

Gly-Pro-4Hyp-Gly-Pro-Val-Gly-Thr-Lys-Gly-Ile-4Hyp-Gly-Val-Tyr-Gly-Pro-Leu-Gly-Ile-4Hyp-Gly-Thr-Pro-Gly-Pro-Trp-Gly-Ile-Leu-Gly-Thr-Lys-Arg-Gly-Val (GP[Hyp]GPVGTKGI[Hyp]GVYGPLGI[Hyp]GTPGPWGILGTKRGV) [SEQ ID No. 24, collagen peptide comprising 36 amino acids]
increase in collagen synthesis by dermal fibroblasts compared to untreated controls [1]: 36% | increase in collagen synthesis by chondrocytes compared to untreated controls [2]: 26% | increase in the synthesis of proteoglycans by dermal fibroblasts compared to untreated controls [3]: 26% | increase in collagen synthesis (in the proteoglycan assay, chondrocytes) [4]: 15% and 26%

Gly-Val-4Hyp-Gly-Lys-Tyr-Gly-Val-Arg-Gly-Leu-Thr-Gly-Pro-Ile-Gly-Pro-4Hyp-Gly-Pro-Leu-Gly-Ile-4Hyp-Gly-Trp-Lys-Gly-Phe-Val-Gly-Pro-Thr (GV[Hyp]GKYGVRGLTGPIGP[Hyp]GPLGI[Hyp]GWKGFVGPT) [SEQ ID No. 23, collagen peptide comprising 33 amino acids]
increase in collagen synthesis by dermal fibroblasts compared to untreated controls [1]: 39% | increase in collagen synthesis by chondrocytes compared to untreated controls [2]: 19% | increase in the synthesis of proteoglycans by dermal fibroblasts compared to untreated controls [3]: 22% | increase in collagen synthesis (in the proteoglycan assay, chondrocytes) [4]: 11%

KGAPGADGPAGAPGTPGPQ [SEQ ID No. 15, collagen peptide comprising 19 amino acids]
increase in collagen synthesis by dermal fibroblasts compared to untreated controls [1]: 23% | increase in collagen synthesis by chondrocytes compared to untreated controls [2]: 31% | increase in collagen synthesis (in the proteoglycan assay, dermal fibroblasts) ([3]; non-hydroxylated peptides): 18% | increase in the synthesis of proteoglycans by chondrocytes compared to untreated controls ([4]; non-hydroxylated peptides): 6%

Lys-Gly-Ala-4Hyp-Gly-Ala-Asp-Gly-Pro-Ala-Gly-Ala-4Hyp-Gly-Thr-Pro-Gly-Pro-Gln (KGA[Hyp]GADGPAGA[Hyp]GTPGPQ) [SEQ ID No. 21, collagen peptide comprising 19 amino acids]
increase in collagen synthesis by dermal fibroblasts compared to untreated controls [1]: 36% | increase in collagen synthesis by chondrocytes compared to untreated controls [2]: 55% | increase in the synthesis of proteoglycans by dermal fibroblasts compared to untreated controls [3]: 27% | increase in collagen synthesis (in the proteoglycan assay, chondrocytes) [4]: 22%
